# ChEMBL document CHEMBL4665890, “N-Trifluoromethyl Amines and Azoles: An Underexplored Functional Group in the Medicinal Chemist's Toolbox” (J Med Chem, 2020)
# Key:
# [1] = Stability in neat DMSO at 10 mM at room temperature under air without protection from sunlight measured after 1 month by LC-MS analysis; type: physicochemical; conditions: 730 h, 10000 µM, time 1 months
# [2] = Stability in neat […] DMSO/H2O 1:4 mixture assessed as compound hydrolysis at 10 mM at room temperature under air without protection from sunlight measured after 0.5 hrs by LC-MS analysis; type: physicochemical; conditions: 10000 µM
# in vitro [3] = conditions: human, liver microsomes
# Description: Metabolic stability in human liver microsomes
# physchem [4] = conditions: buffer, pH 7.4
# physchem [5] = conditions: buffer, pH 7.4; remark: listed apart in the source
# in vitro [6] = conditions: human, Caco-2
# Description: Passive permeability from apical to basolateral side in human Caco-2 cells
# physchem [7] = conditions: 20 mM sodium phosphate buffer, pH 7.4
# Description: Half life in 20 mM sodium phosphate buffer at pH 7.4 at 25 degC by UPLC analysis
# physchem [8] = conditions: 0.1 M HCl solution, pH 1
# Description: Half life in 0.1 M HCl solution at pH 1.0 at 25 degC by UPLC analysis
# physchem [9] = conditions: 20 mM sodium carbonate buffer, pH 10
# Description: Half life in 20 mM sodium carbonate buffer at pH 10 at 25 degC by UPLC analysis
# physchem [10] = assay: physchem
# Description: Dissociation constant, pKa1 of compound by spectrophotometry
# [11] = Stability in neat […] DMSO/H2O 1:4 mixture assessed as compound hydrolysis at 10 mM at room temperature under air without protection from sunlight measured after 1 month by LC-MS analysis; type: physicochemical; conditions: 730 h, 10000 µM, time 1 months
# [12] = Stability in neat […] DMSO/H2O 1:4 mixture assessed as compound hydrolysis at 10 mM at room temperature under air without protection from sunlight measured after 1 month by NMR analysis; type: physicochemical; conditions: 730 h, 10000 µM, time 1 months
# [13] = Stability in presence of glutathione by LC-MS analysis; type: physicochemical; conditions: solution with glutathione
# [14] = Stability in absence of glutathione by LC-MS analysis; type: physicochemical; conditions: gsh
# [15] = Stability in neat […] DMSO/H2O 1:4 mixture assessed as compound hydrolysis at 10 mM at room temperature under air without protection from sunlight measured after 24 hrs by LC-MS analysis; type: physicochemical; conditions: read-out: Drug degradation
# physchem [16] = assay: physchem; remark: listed apart in the source
# Description: Dissociation constant, pKa2 of compound by spectrophotometry
Structure (SMILES),Stabilty [1],microsomal CLint (in vitro [3]) [µL/min/mg],logD (physchem [4]),chromatographic logD (physchem [5]),Papp A→B (in vitro [6]) [×10⁻⁶ cm/s],other results
CCOC(=O)N(Cc1ccccc1)C(F)(F)F,Stable,,,,,Stabilty [2]: Unstable
Cn1cc(Nc2nc(N[C@H]3CC[C@H](N(C)C)CC3)c3cccn3n2)cn1,,< 3,0.6,< 0,2.4,
COc1ccc(N(C)C(F)(F)F)cc1,Stable,,,,,Stabilty [2]: Unstable
COc1ccc(CC(=O)Nc2cnn(C(F)(F)F)c2)cc1OC,,53,2.4,2.2,56,half-life (physchem [7]): > 1730 h; half-life (physchem [8]): 288 h; half-life (physchem [9]): > 1730 h
COc1ccc(CC(=O)Nc2cnn(C(C)(C)C)c2)cc1OC,,< 4.1,2,1.6,45,
FC(F)(F)N1CCN(c2ccccc2)CC1,Stable,,,,,Stabilty [2]: Unstable
CN(c1cccc(F)c1)C(F)(F)F,Stable,,,,,
COc1ccc(CC(=O)Nc2cnn(C)c2)cc1OC,,< 3,0.9,0.1,42,
CCN(c1ccccc1)C(F)(F)F,Stable,,,,,Stabilty [2]: Unstable
CC(=O)c1ccc(N2CCN(C(=O)c3cnn(C(C)C)c3)CC2)cc1,,< 4.2,1.8,1.5,40,
Cn1c(-c2cscn2)nc2ccccc21,,172,2.3,1.5,72,pKa (physchem [10]): 4.9
CC(=O)c1ccc(N2CCN(C(=O)c3cnn(C(F)(F)F)c3)CC2)cc1,,< 3,1.9,2.3,71,half-life (physchem [7]): > 1730 h; half-life (physchem [8]): 984 h; half-life (physchem [9]): 408 h
Cc1cc(NS(=O)(=O)c2ccc(N(C)C)cc2)no1,,,0.6,1.3,,
CC(=O)c1ccc(N2CCN(C(=O)c3cnn(C(C)(C)C)c3)CC2)cc1,,< 4.5,2.2,2.2,66,
FC(F)(F)n1cnc2ccccc21,Stable,,,,,Stabilty [11]: Stable; Stabilty [12]: Stable
CC(=O)c1ccc(N2CCN(C(=O)c3cnn(C)c3)CC2)cc1,,< 3,1.1,0.6,42,
FC(F)(F)N1CCCc2ccccc21,Stable,,,,,Stabilty [2]: Unstable
CCCCN(C)c1ccc(C(=O)OCCN(C)C)cc1,,,2.8,3.3,,

Structure (SMILES),Stabilty [1],microsomal CLint (in vitro [3]) [µL/min/mg],logD (physchem [4]),chromatographic logD (physchem [5]),Papp A→B (in vitro [6]) [×10⁻⁶ cm/s],other results
CCCCN(C(=O)F)c1ccc(C(=O)OCCN(C)C)cc1,,,,,,half-life [13]: 1.1 h; half-life [14]: 3.95 h
CN(c1ccc(C(F)(F)F)cc1)C(F)(F)F,Stable,,,,,"degraded at 24 h, 10000 µM [15]: 90%"
Cc1ccc(N(C)C(F)(F)F)cc1,Stable,,,,,Stabilty [2]: Unstable
Cc1cc(NS(=O)(=O)c2ccc(N(C)C(F)(F)F)cc2)no1,,,1.6,1.5,,half-life (physchem [7]): 9.6 h; half-life (physchem [8]): 4.8 h; half-life (physchem [9]): 7.2 h
Cc1ccc(-c2cn(C)cn2)cc1NC(=O)c1ccc(OCc2ccccn2)cc1,,4.8,2.7,2.2,72,pKa (physchem [10]): 5.8; pKa (physchem [16]): 3.9
CN(c1ccc(C#N)cc1)C(F)(F)F,Stable,,,,,"degraded at 24 h, 10000 µM [15]: 24%"
COc1ccc(CC(=O)Nc2cnn(C(C)C)c2)cc1OC,,< 3.3,1.6,0.9,44,
FC(F)(F)N1CCc2ccccc21,Stable,,,,,Stabilty [2]: Unstable
CCCCN(c1ccc(C(=O)OCCN(C)C)cc1)C(F)(F)F,,,> 4,4.9,,half-life (physchem [7]): < 14.4 h; half-life (physchem [8]): < 14.4 h; half-life (physchem [9]): < 14.4 h
CCCc1nn(C)c2c(=O)[nH]c(-c3cc(S(=O)(=O)N4CCN(C(F)(F)F)CC4)ccc3CC)nc12,,,> 4,> 5.3,,half-life (physchem [7]): < 19.2 h; half-life (physchem [8]): < 31.2 h; half-life (physchem [9]): < 12 h
FC(F)(F)n1c(-c2cscn2)nc2ccccc21,,39,3,3.3,58,half-life (physchem [7]): > 1730 h; half-life (physchem [8]): > 1730 h; pKa (physchem [10]): < 2; half-life (physchem [9]): > 1730 h
CN(C)[C@H]1CC[C@H](Nc2nc(Nc3cnn(C(F)(F)F)c3)nn3cccc23)CC1,,< 3,2.2,2.2,12,half-life (physchem [7]): > 1730 h; half-life (physchem [8]): > 1730 h; half-life (physchem [9]): 1700 h
CN(c1ccccc1)C(F)(F)F,Stable,,,,,Stabilty [2]: Unstable
FC(F)(F)n1cccn1,Stable,,,,,Stabilty [11]: Stable; Stabilty [12]: Stable
CN(C)[C@H]1CC[C@H](Nc2nc(Nc3cnn(C(C)(C)C)c3)nn3cccc23)CC1,,< 3,1.7,1.5,11,
CN(c1ccc(F)cc1)C(F)(F)F,Stable,,,,,
CC(C)n1cc(Nc2nc(N[C@H]3CC[C@H](N(C)C)CC3)c3cccn3n2)cn1,,< 3,1.4,1.1,8.4,
CCCc1nn(C)c2c(=O)[nH]c(-c3cc(S(=O)(=O)N4CCN(C)CC4)ccc3CC)nc12,,,2.7,3.3,,
